From publication PMC4999848 (Toxins, 2016) come the findings set out here.

In one assay the test system is CES in S9 Liver. The experiment in a line: CES activity on pNPA, liver S9 fraction.
The next assay concerns CES in T84 cells. The assay is described as follows: CES activity on pNPA, T84 cells.
A further assay deals with CES in A498 cells. The experiment in a line: CES activity on pNPA, A498 cells.
In a further assay the target is T1, recombinant human CES1 (Homo sapiens, UniProt P23141).
T1 sequence (P23141 18-567): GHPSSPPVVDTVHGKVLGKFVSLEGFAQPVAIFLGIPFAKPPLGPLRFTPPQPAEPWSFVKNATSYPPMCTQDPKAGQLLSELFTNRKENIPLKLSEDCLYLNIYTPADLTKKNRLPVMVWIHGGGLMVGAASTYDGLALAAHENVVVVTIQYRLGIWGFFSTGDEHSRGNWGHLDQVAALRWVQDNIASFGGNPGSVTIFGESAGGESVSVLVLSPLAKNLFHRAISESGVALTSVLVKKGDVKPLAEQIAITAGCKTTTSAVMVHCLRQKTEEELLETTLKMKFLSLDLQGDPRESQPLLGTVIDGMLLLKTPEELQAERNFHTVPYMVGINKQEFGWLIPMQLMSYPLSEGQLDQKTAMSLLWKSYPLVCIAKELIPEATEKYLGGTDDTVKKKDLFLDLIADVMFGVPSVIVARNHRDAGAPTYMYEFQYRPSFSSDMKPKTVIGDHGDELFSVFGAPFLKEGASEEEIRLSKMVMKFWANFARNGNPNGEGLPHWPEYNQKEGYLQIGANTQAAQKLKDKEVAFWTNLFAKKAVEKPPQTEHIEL
The experiment in a line: CES activity on pNPA, recombinant CES1.

Another assay relates to CES in Caco-2 cells. The experiment in a line: CES activity on pNPA, Caco-2 cells.
For the next assay, the system named is CES in HepG2 cells. The experiment in a line: CES activity on pNPA, HepG2 cells.
Assay [1] deals with human cell lines (Caco-2, HepG2, T84, A498). The experiment in a line: cells. In kind it is in vitro ADME. As to conditions: read-out: % inhibition of deacetylation of 3/15ADON.
For a further assay, the system named is CES in S9 Kidney. The experiment in a line: CES activity on pNPA, kidney S9 fraction.
Another assay concerns CES in S9 Intestine. The assay is described as follows: CES activity on pNPA, intestine S9 fraction.
A further assay concerns the target T2, recombinant human CES2 (Homo sapiens, UniProt O00748).
T2 sequence (O00748 27-559): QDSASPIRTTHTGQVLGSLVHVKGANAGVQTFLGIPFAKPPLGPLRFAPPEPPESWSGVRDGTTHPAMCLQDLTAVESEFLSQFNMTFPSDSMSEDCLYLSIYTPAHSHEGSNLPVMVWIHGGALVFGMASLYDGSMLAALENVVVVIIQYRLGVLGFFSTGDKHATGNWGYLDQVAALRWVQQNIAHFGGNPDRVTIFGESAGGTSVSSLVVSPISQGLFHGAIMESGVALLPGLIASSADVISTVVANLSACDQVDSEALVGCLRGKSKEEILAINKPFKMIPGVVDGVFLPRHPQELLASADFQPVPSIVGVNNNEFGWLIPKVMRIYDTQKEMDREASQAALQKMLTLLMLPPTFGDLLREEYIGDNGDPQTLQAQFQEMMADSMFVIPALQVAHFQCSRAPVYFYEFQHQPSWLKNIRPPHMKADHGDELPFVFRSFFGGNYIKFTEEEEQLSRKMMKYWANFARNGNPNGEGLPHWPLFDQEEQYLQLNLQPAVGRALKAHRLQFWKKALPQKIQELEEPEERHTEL
The experiment in a line: CES activity on pNPA, recombinant CES2. The settings on record: CES2, pNPA 1 mM.

Structures are written as SMILES.

In the case of `O=C(C(=O)c1ccccc1)c1ccccc1` [benzil], the “% of Inhibition of pNPA deacetylation” value in the assay on CES in S9 Liver (benzil 100 μM) is listed as 85 ± 14%; in the assay on CES in T84 cells (T84, benzil 100 μM) it was 85 ± 14%; in the assay on CES in A498 cells (A498, benzil 100 μM), 83 ± 16%; with CES in Caco-2 cells (Caco-2, benzil 100 μM), 83 ± 16%; in the assay on CES in HepG2 cells (HepG2, benzil 100 μM), 87 ± 12%; with CES in S9 Kidney (benzil 100 μM), 88 ± 11%. In addition, the “% of Inhibition of pNPA deacetylation” value in the assay with CES in S9 Intestine (benzil 100 μM) is on record as 84 ± 15%. For the same compound, the values for the inhibition at 100 µM (at recombinant human CES1 (read-out: % of Inhibition of pNPA deacetylation); in assay [1]) were 96 ± 3.3% and 10 to 20%, respectively.

In the case of `CC(=O)Oc1ccc([N+](=O)[O-])cc1` [pNPA, para-nitrophenyl acetate], the “Specific activity on pNPA, Without Benzil” value was 142 ± 4.6 nmol of pNPA hydrolyzed per minute and per mg of protein in the assay with CES in S9 Liver (pNPA 1 mM, 37 °C); 6.6 ± 0.7 nmol of pNPA hydrolyzed per minute and per mg of protein in the assay on CES in T84 cells (T84, pNPA 1 mM, 37 °C); 4965 ± 197 nmol of pNPA hydrolyzed per minute and per mg of protein on recombinant human CES1 (CES1, pNPA 1 mM, 37 °C); 6.2 ± 1.8 nmol of pNPA hydrolyzed per minute and per mg of protein in the assay on CES in Caco-2 cells (Caco-2, pNPA 1 mM, 37 °C); 5671 ± 207 nmol of pNPA hydrolyzed per minute and per mg of protein at recombinant human CES2 (37 °C); 15.7 ± 1.1 nmol of pNPA hydrolyzed per minute and per mg of protein with CES in HepG2 cells (HepG2, pNPA 1 mM, 37 °C). Moreover, the “Specific activity on pNPA, Without Benzil” value is 69 ± 7.6 nmol of pNPA hydrolyzed per minute and per mg of protein with CES in S9 Kidney (pNPA 1 mM, 37 °C); 55 ± 9.9 nmol of pNPA hydrolyzed per minute and per mg of protein in the assay on CES in S9 Intestine (pNPA 1 mM, 37 °C). For the same compound, the “Specific activity on pNPA, With Benzil” value is 21 ± 2.2 nmol of pNPA hydrolyzed per minute and per mg of protein with CES in S9 Liver (pNPA 1 mM, benzil 100 μM); 0.9 ± 0.2 nmol of pNPA hydrolyzed per minute and per mg of protein in the assay on CES in T84 cells (T84, pNPA 1 mM, benzil 100 μM); 1.1 ± 0.1 nmol of pNPA hydrolyzed per minute and per mg of protein in the assay with CES in A498 cells (A498, pNPA 1 mM, benzil 100 μM); 167 ± 10 nmol of pNPA hydrolyzed per minute and per mg of protein at recombinant human CES1 (CES1, pNPA 1 mM, benzil 100 μM); 1.1 ± 0.1 nmol of pNPA hydrolyzed per minute and per mg of protein in the assay with CES in Caco-2 cells (Caco-2, pNPA 1 mM, benzil 100 μM); 214 ± 43 nmol of pNPA hydrolyzed per minute and per mg of protein at recombinant human CES2 (benzil 100 μM). The “Specific activity on pNPA, With Benzil” value in the assay with CES in HepG2 cells (HepG2, pNPA 1 mM, benzil 100 μM) is 2.1 ± 0.1 nmol of pNPA hydrolyzed per minute and per mg of protein; in the assay on CES in S9 Kidney (pNPA 1 mM, benzil 100 μM), 8.1 ± 1.4 nmol of pNPA hydrolyzed per minute and per mg of protein; with CES in S9 Intestine (pNPA 1 mM, benzil 100 μM), 8.3 ± 2.7 nmol of pNPA hydrolyzed per minute and per mg of protein.
